ChEMBL document CHEMBL4732153, “Phenyl 4-(2-oxopyrrolidin-1-yl)benzenesulfonates and phenyl 4-(2-oxopyrrolidin-1-yl)benzenesulfonamides as new antimicrotubule agents targeting the colchicine-binding site” (Eur J Med Chem, 2021)
The source made the active and inactive calls. The rule behind the calls is not given here.

Assays:
HT-1080 = test: Antiproliferative activity against human HT-1080 cells assessed as reduction in cell viability measured after 48 hrs by sulforhodamine B assay; format: functional, cell-based; conditions: HT-1080, 48 h
HT-29 = test: Antiproliferative activity against human HT-29 cells assessed as reduction in cell viability measured after 48 hrs by sulforhodamine B assay; format: functional, cell-based; conditions: HT-29, 48 h
M21 [1] = test: Antiproliferative activity against human M21 cells assessed as reduction in cell viability measured after 48 hrs by sulforhodamine B assay; format: functional, cell-based; conditions: M21, 48 h
MCF7 = test: Antiproliferative activity against human MCF7 cells assessed as reduction in cell viability measured after 48 hrs by sulforhodamine B assay; format: functional, cell-based; conditions: MCF7, 48 h
M21 [2] = test: Cell cycle arrest in human M21 cells assessed as accumulation at SubG1 phase at 2 to 5 times IC50 measured after 24 hrs by DAPI staining based flow cytometry (reference value: 5%); format: functional
M21 [3] = test: Cell cycle arrest in human M21 cells assessed as accumulation at G0/G1 phase at 2 to 5 times IC50 measured after 24 hrs by DAPI staining based flow cytometry (reference value: 65.5%); format: functional
M21 [4] = test: Cell cycle arrest in human M21 cells assessed as accumulation at S phase at 2 to 5 times IC50 measured after 24 hrs by DAPI staining based flow cytometry (reference value: 16.1%); format: functional
M21 [5] = test: Cell cycle arrest in human M21 cells assessed as accumulation at G2/M phase at 2 to 5 times IC50 measured after 24 hrs by DAPI staining based flow cytometry (reference value: 13.4%); format: functional
Tubulin (Homo sapiens) [6] = target: T1, Tubulin (Homo sapiens) (UniProt P68371+Q9H4B7+P0DPH7+P68366+Q13509+Q71U36+P04350+Q3ZCM7+P07437+P68363+Q9BQE3+Q6PEY2+Q13885+Q9BVA1+Q9BUF5); test: Disruption of microtubule polymerization in human M21 cells at 5 times IC50 measured after 24 hrs by DAPI staining based immunofluorescence microscopic analysis; format: cell-based
Tubulin (Homo sapiens) [7] = target: T1, Tubulin (Homo sapiens); test: Disruption of microtubule polymerization in human M21 cells assessed as induction of mitotic abnormalities at 5 times IC50 measured after 24 hrs by DAPI staining based immunofluorescence microscopic analysis; format: cell-based
[8] = Solubility of compound in DMSO at 30 uM; format: physicochemical
Sus scrofa [9] = species: Sus scrofa; test: Inhibition of porcine brain tubulin polymerization at 30 uM measured after 60 mins by fluorescence assay
[10] = target: Tubulin beta (Homo sapiens) (UniProt P68371+Q9H4B7+Q13509+P04350+Q3ZCM7+P07437+Q13885+Q9BVA1+Q9BUF5+A6NNZ2); test: Inhibition of EBI binding to colchicine-binding site of beta-tubulin in human M21 cells at 100 to 1000 times IC50 preincubated for 2 hrs followed by EBI addition and measured after 1.5 hrs by Western blot analysis; format: cell-based; conditions: time 3.5 hrs
[11] = Toxicity in chick embryo assessed as death at 20 ug, iv incubated for 7 days relative to control; format: organism-based; conditions: in vivo, at 20 µg, time 7 day, read-out: Activity
M21 [12] = test: Cell cycle arrest in human M21 cells assessed as accumulation at SubG1 phase at 11 nM measured after 24 hrs by DAPI staining based flow cytometry (reference value: 5%); format: functional
M21 [13] = test: Cell cycle arrest in human M21 cells assessed as accumulation at G0/G1 phase at 11 nM measured after 24 hrs by DAPI staining based flow cytometry (reference value: 65.5%); format: functional
M21 [14] = test: Cell cycle arrest in human M21 cells assessed as accumulation at S phase at 11 nM measured after 24 hrs by DAPI staining based flow cytometry (reference value: 16.1%); format: functional
M21 [15] = test: Cell cycle arrest in human M21 cells assessed as accumulation at G2/M phase at 11 nM measured after 24 hrs by DAPI staining based flow cytometry (reference value: 13.4%); format: functional
Sus scrofa [16] = species: Sus scrofa; test: Inhibition of porcine brain tubulin polymerization at 15 uM measured after 60 mins by fluorescence assay
[17] = Solubility of compound in DMSO at 3 uM; format: physicochemical
Sus scrofa [18] = species: Sus scrofa; test: Inhibition of porcine brain tubulin polymerization at 3 uM measured after 60 mins by fluorescence assay
[19] = Toxicity in chick embryo assessed as death at 10 ug, iv incubated for 7 days relative to control; format: organism-based; conditions: in vivo, at 10 µg, time 7 day, read-out: Activity
[20] = Solubility of compound in DMSO at 15 uM; format: physicochemical
[21] = Toxicity in chick embryo assessed as death at 1 ug, iv incubated for 7 days relative to control; format: organism-based; conditions: in vivo, at 1 µg, time 7 day, read-out: Activity

| Structure (SMILES) | IC50 (HT-1080) | IC50 (HT-29) | IC50 (M21 [1]) | IC50 (MCF7) | Activity (M21 [2]) | Activity (M21 [3]) | Activity (M21 [4]) | Activity (M21 [5]) | further results |
| --- | --- | --- | --- | --- | --- | --- | --- | --- | --- |
| COc1ccccc1OS(=O)(=O)c1ccc(N2CCCC2=O)cc1 | 1300 nM | 1200 nM | 1300 nM | 890 nM | – | – | – | – | – |
| O=C1CCCN1c1ccc(S(=O)(=O)Oc2cccc(Cl)c2)cc1 | 180 nM | 120 nM | 110 nM | 140 nM | – | – | – | – | – |
| COc1ccc(NS(=O)(=O)c2ccc(N3CCCC3=O)cc2)cc1OC | 2250 nM | 890 nM | 5100 nM | 2600 nM | – | – | – | – | – |
| O=C1CCCN1c1ccc(S(=O)(=O)Oc2ccccc2)cc1 | 920 nM | 480 nM | 460 nM | 650 nM | – | – | – | – | – |
| O=C1CCCN1c1ccc(S(=O)(=O)Nc2cccc(Cl)c2)cc1 | 680 nM | 680 nM | 770 nM | 560 nM | 10.6% | 13.7% | 7.9% | 67.8% | – |
| O=C1CCCN1c1ccc(S(=O)(=O)Nc2cccc(F)c2)cc1 | 840 nM | 5400 nM | 2300 nM | 680 nM | – | – | – | – | – |
| COc1ccccc1NS(=O)(=O)c1ccc(N2CCCC2=O)cc1 | 3200 nM | 2400 nM | 3000 nM | 1800 nM | – | – | – | – | – |
| COc1cccc(NS(=O)(=O)c2ccc(N3CCCC3=O)cc2)c1 | 1300 nM | 860 nM | 940 nM | 1100 nM | – | – | – | – | – |
| CC(C)c1ccccc1NS(=O)(=O)c1ccc(N2CCCC2=O)cc1 | 21000 nM | 12000 nM | 9900 nM | 16000 nM | – | – | – | – | – |
| O=C1CCCN1c1ccc(S(=O)(=O)Oc2cccc(F)c2)cc1 | 810 nM | 310 nM | 300 nM | 370 nM | – | – | – | – | – |
| COc1ccc(NS(=O)(=O)c2ccc(N3CCCC3=O)cc2)cc1 | 8500 nM | 4800 nM | 7500 nM | 4600 nM | – | – | – | – | – |
| COc1cc(OC)cc(OS(=O)(=O)c2ccc(N3CCCC3=O)cc2)c1 | 26 nM | 39 nM | 12 nM | 21 nM | 12.1% | 32.7% | 9.6% | 45.6% | Activity (Tubulin (Homo sapiens) [6]): Active; Activity (Tubulin (Homo sapiens) [7]): Active; solubility [8]: Soluble; inhibition (Sus scrofa [9]): Active; Inhibition of EBI binding (active/inactive) [10]: Active; mortality at 168 h [11]: 18% |
| COc1ccc(OS(=O)(=O)c2ccc(N3CCCC3=O)cc2)cc1OC | 590 nM | 690 nM | 650 nM | 290 nM | – | – | – | – | – |
| CC(C)c1ccccc1OS(=O)(=O)c1ccc(N2CCCC2=O)cc1 | 840 nM | 780 nM | 910 nM | 500 nM | – | – | – | – | – |
| COc1ccc(/C=C\c2cc(OC)c(OC)c(OC)c2)cc1O [COMBRETASTATIN A4] | 2.2 nM | 5.1 nM | 2.2 nM | 1.9 nM | – | – | – | – | Activity (M21 [12]): 4.1%; Activity (M21 [13]): 9.2%; Activity (M21 [14]): 7.2%; Activity (M21 [15]): 79.5%; inhibition (Sus scrofa [16]): Active; Inhibition of EBI binding (active/inactive) [10]: Active |
| COc1cccc(OS(=O)(=O)c2ccc(N3CCCC3=O)cc2)c1 | 190 nM | 120 nM | 120 nM | 100 nM | – | – | – | – | – |

| Structure (SMILES) | IC50 (HT-1080) | IC50 (HT-29) | IC50 (M21 [1]) | IC50 (MCF7) | Activity (M21 [2]) | Activity (M21 [3]) | Activity (M21 [4]) | Activity (M21 [5]) | further results |
| --- | --- | --- | --- | --- | --- | --- | --- | --- | --- |
| COc1cc(OS(=O)(=O)c2ccc(N3CCCC3=O)cc2)cc(OC)c1OC | 11 nM | 16 nM | 13 nM | 17 nM | 3.8% | 8.3% | 6.1% | 81.8% | Activity (Tubulin (Homo sapiens) [6]): Active; Activity (Tubulin (Homo sapiens) [7]): Active; Inhibition of EBI binding (active/inactive) [10]: Active |
| O=C1CCCN1c1ccc(S(=O)(=O)Nc2cccc(Br)c2)cc1 | 1300 nM | 590 nM | 950 nM | 830 nM | – | – | – | – | – |
| O=C1CCCN1c1ccc(S(=O)(=O)Oc2ccc(-c3ccccc3)cc2)cc1 | 2600 nM | 2900 nM | 2300 nM | 1700 nM | – | – | – | – | – |
| O=C1CCCN1c1ccc(S(=O)(=O)Nc2ccccc2-c2ccccc2)cc1 | 1200 nM | 730 nM | 430 nM | 960 nM | 3% | 59.8% | 12.1% | 25.1% | – |
| O=C1CCCN1c1ccc(S(=O)(=O)Nc2cc(Br)cc(Br)c2)cc1 | 590 nM | 390 nM | 280 nM | 520 nM | 4.2% | 8.3% | 6.3% | 81.2% | Activity (Tubulin (Homo sapiens) [6]): Active; Activity (Tubulin (Homo sapiens) [7]): Active; solubility [17]: Soluble; inhibition (Sus scrofa [18]): Active; Inhibition of EBI binding (active/inactive) [10]: Active; mortality at 168 h [19]: 25% |
| COc1cc(NS(=O)(=O)c2ccc(N3CCCC3=O)cc2)cc(OC)c1 | 990 nM | 1300 nM | 390 nM | 690 nM | 4.9% | 43.1% | 9.8% | 42.2% | – |
| O=C1CCCN1c1ccc(S(=O)(=O)Oc2cc(Br)cc(Br)c2)cc1 | 11 nM | 10 nM | 8.7 nM | 11 nM | 3.9% | 9.4% | 7% | 79.7% | Activity (Tubulin (Homo sapiens) [6]): Active; Activity (Tubulin (Homo sapiens) [7]): Active; solubility [17]: Soluble; inhibition (Sus scrofa [18]): Active; Inhibition of EBI binding (active/inactive) [10]: Active; mortality at 168 h [19]: 18% |
| O=C1CCCN1c1ccc(S(=O)(=O)Nc2cccc(I)c2)cc1 | 860 nM | 390 nM | 330 nM | 600 nM | 6.8% | 11.2% | 7.8% | 74.2% | Activity (Tubulin (Homo sapiens) [6]): Active; Activity (Tubulin (Homo sapiens) [7]): Active; Inhibition of EBI binding (active/inactive) [10]: Active |
| O=C1CCCN1c1ccc(S(=O)(=O)Nc2ccccc2)cc1 | 4900 nM | 3400 nM | 5600 nM | 2800 nM | – | – | – | – | – |
| O=C1CCCN1c1ccc(S(=O)(=O)Oc2cccc(I)c2)cc1 | 40 nM | 59 nM | 88 nM | 22 nM | 4.3% | 7.8% | 6.5% | 81.4% | – |
| COc1ccc(OS(=O)(=O)c2ccc(N3CCCC3=O)cc2)cc1 | 8500 nM | 4800 nM | 7500 nM | 4600 nM | – | – | – | – | – |
| O=C1CCCN1c1ccc(S(=O)(=O)Oc2cccc(Br)c2)cc1 | 80 nM | 60 nM | 40 nM | 60 nM | 13.3% | 24% | 9.6% | 53.1% | – |
| COc1cc(NS(=O)(=O)c2ccc(N3CCCC3=O)cc2)cc(OC)c1OC | 130 nM | 80 nM | 56 nM | 88 nM | 3.9% | 8.2% | 7.5% | 80.4% | solubility [20]: Soluble; Activity (Tubulin (Homo sapiens) [6]): Active; Activity (Tubulin (Homo sapiens) [7]): Active; inhibition (Sus scrofa [16]): Active; Inhibition of EBI binding (active/inactive) [10]: Active; mortality at 168 h [21]: 8% |
| O=C1CCCN1c1ccc(S(=O)(=O)Oc2ccccc2-c2ccccc2)cc1 | 370 nM | 350 nM | 190 nM | 210 nM | – | – | – | – | – |
| O=C1CCCN1c1ccc(S(=O)(=O)Nc2ccc(-c3ccccc3)cc2)cc1 | 8800 nM | 5400 nM | 4700 nM | 7000 nM | – | – | – | – | – |
